In brackets after ≈: the same amount, converted by molar mass.
Legend:
Type in all cases: cell-based
E. coli NIHJ JC-2 = experiment: MIC against standard strains (Test Example 3); conditions: Escherichia coli, NIHJJC2; E. coli NIHJ JC-2 (Test Example 3); read-out: MIC
Method: (§1) By using each test strain cultured overnight at 37°C in a Muller-Hinton broth, there was prepared a bacterial solution with a bacterial cell population of 1 x 10^6 CFU/mi of the same bouillon. The bacterial solution was inoculated into the Muller-Hinton agar media each containing respectively one test agent and, after overnight incubation at 37°C, the minimum concentration that inhibited growth of the bacteria was determined and shown as MIC also in Table 1.
(§2) The minimum growth inhibitory concentration was determined for each of the 21 standard strains shown in Table 3, according to the same method as used in Test Example 1.
(§3) In the test, FMOX (flomoxef), CTM (cefotiam) and CEZ (cefazolin) were used as control agents.

S. aureus Smith = experiment: MIC against standard strains (Test Example 3); conditions: Staphylococcus aureus; S. aureus Smith (Test Example 3); read-out: MIC
Method: as §1, §2, §3

E. coli CSH2 (RK1) = experiment: MIC against standard strains (Test Example 3); conditions: Escherichia coli
Method: as §1, §2, §3

A. calcoaceticos T59 = experiment: MIC against standard strains (Test Example 3); conditions: A. calcoaceticos T59 (Test Example 3); read-out: MIC
Method: as §1, §2, §3

S. aureus 167 = experiment: MIC against standard strains (Test Example 3); conditions: Staphylococcus aureus; S. aureus 167 (MRSA) (Test Example 3); read-out: MIC
Method: as §1, §2, §3

M. luteus ATCC 9341 = experiment: MIC against standard strains (Test Example 3); conditions: Micrococcus luteus, ATCC9341; M. luteus ATCC 9341 (Test Example 3); read-out: MIC
Method: as §1, §2, §3

S. aureus 209p JC-1 = experiment: MIC against standard strains (Test Example 3); conditions: Staphylococcus aureus; S. aureus 209p JC-1 (Test Example 3); read-out: MIC
Method: as §1, §2, §3

S. epidemidis IAM1296 = experiment: MIC against standard strains (Test Example 3); conditions: S. epidemidis IAM1296 (Test Example 3); read-out: MIC
Method: as §1, §2, §3

P. mirabilis IFO3849 = experiment: MIC against standard strains (Test Example 3); conditions: Proteus mirabilis; P. mirabilis IFO3849 (Test Example 3); read-out: MIC
Method: as §1, §2, §3

P. aeruginosa NCTC10490 = experiment: MIC against standard strains (Test Example 3); conditions: Pseudomonas aeruginosa; P. aeruginosa NCTC10490 (Test Example 3); read-out: MIC
Method: as §1, §2, §3

K. pneumoniae IFO3317 = experiment: MIC against standard strains (Test Example 3); conditions: Klebsiella pneumoniae; K. pneumoniae IFO3317 (Test Example 3); read-out: MIC
Method: as §1, §2, §3

P. vulugaris OX-19 = experiment: MIC against standard strains (Test Example 3); conditions: P. vulugaris OX-19 (Test Example 3); read-out: MIC
Method: as §1, §2, §3

C. freundii ATCC8090 = experiment: MIC against standard strains (Test Example 3); conditions: Citrobacter freundii; C. freundii ATCC8090 (Test Example 3); read-out: MIC
Method: as §1, §2, §3

E. coli CSH2 (RE45) = experiment: MIC against standard strains (Test Example 3); conditions: Escherichia coli
Method: as §1, §2, §3

K. pneumoniae No. 42 = experiment: MIC against standard strains (Test Example 3); conditions: Klebsiella pneumoniae; K. pneumoniae No. 42 (Test Example 3); read-out: MIC
Method: as §1, §2, §3

S. marcescens IAM1184 = experiment: MIC against standard strains (Test Example 3); conditions: Serratia marcescens; S. marcescens IAM1184 (Test Example 3); read-out: MIC
Method: as §1, §2, §3

E. cloacae ATCC13407 = experiment: MIC against standard strains (Test Example 3); conditions: Enterobacter cloacae; E. cloacae ATCC13407 (Test Example 3); read-out: MIC
Method: as §1, §2, §3

M. Morganii IFO3848 = experiment: MIC against standard strains (Test Example 3); conditions: Morganella morganii; M. Morganii IFO3848 (Test Example 3); read-out: MIC
Method: as §1, §2, §3

S. aureus 195 = experiment: MIC against standard strains (Test Example 3); conditions: Staphylococcus aureus; S. aureus 195 (MRSA) (Test Example 3); read-out: MIC
Method: as §1, §2, §3

B. subtilis ATCC6633 = experiment: MIC against standard strains (Test Example 3); conditions: Bacillus subtilis; B. subtilis ATCC6633 (Test Example 3); read-out: MIC
Method: as §1, §2, §3

A. faecalis ATCC3750 = experiment: MIC against standard strains (Test Example 3); conditions: Alcaligenes faecalis; A. faecalis ATCC3750 (Test Example 3); read-out: MIC
Method: as §1, §2, §3

[1] = test system: Staphylococcus aureus 209P JC-1; experiment: MIC against standard strains (Test Example 1); conditions: Muller-Hinton agar, 37°C overnight
Method: as §1
(§4) Staphylococcus aureus 167 and Staphylococcus aureus 195 used in the test were MRSA. CTM (cefotiam) and FMOX (flomoxef) were used as control agents.

[2] = test system: Klebsiella pneumoniae No. 42; experiment: MIC against standard strains (Test Example 1); conditions: Muller-Hinton agar, 37°C overnight
Method: as §1, §4

[3] = test system: Serratia marcescens IAM 1184; experiment: MIC against standard strains (Test Example 1); conditions: IAM1184, Muller-Hinton agar, 37°C overnight
Method: as §1, §4

[4] = test system: Staphylococcus aureus 167; experiment: MIC against standard strains (Test Example 1); conditions: Staphylococcus aureus 167 (MRSA); Muller-Hinton agar, 37°C overnight
Method: as §1, §4

[5] = test system: Bacillus subtilis ATCC 6633; experiment: MIC against standard strains (Test Example 1); conditions: ATCC6633, Muller-Hinton agar, 37°C overnight
Method: as §1, §4

[6] = test system: Escherichia coli CSH2 (RK1); experiment: MIC against standard strains (Test Example 1)
Method: as §1, §4

[7] = test system: Escherichia coli NIHJ JC-2; experiment: MIC against standard strains (Test Example 1); conditions: NIHJJC2, Muller-Hinton agar, 37°C overnight
Method: as §1, §4

[8] = test system: Escherichia coli CSH2 (RE45); experiment: MIC against standard strains (Test Example 1)
Method: as §1, §4

[9] = test system: Morganella morganii IFO 3848; experiment: MIC against standard strains (Test Example 1); conditions: IFO3848, Muller-Hinton agar, 37°C overnight
Method: as §1, §4

[10] = test system: Micrococcus luteus ATCC 9341; experiment: MIC against standard strains (Test Example 1); conditions: ATCC9341, Muller-Hinton agar, 37°C overnight
Method: as §1, §4

Proteus vulgalis OX-19 = experiment: MIC against standard strains (Test Example 1); conditions: Muller-Hinton agar, 37°C overnight
Method: as §1, §4

[11] = test system: Klebsiella pneumoniae IFO 3317; experiment: MIC against standard strains (Test Example 1); conditions: IFO3317, Muller-Hinton agar, 37°C overnight
Method: as §1, §4

[12] = test system: Citrobacter freundii ATCC 8090; experiment: MIC against standard strains (Test Example 1); conditions: ATCC8090, Muller-Hinton agar, 37°C overnight
Method: as §1, §4

[13] = test system: Proteus mirabilis IFO 3849; experiment: MIC against standard strains (Test Example 1); conditions: IFO3849, Muller-Hinton agar, 37°C overnight
Method: as §1, §4

[14] = test system: Staphylococcus epidermidis IAM 1296; experiment: MIC against standard strains (Test Example 1); conditions: IAM1296, Muller-Hinton agar, 37°C overnight
Method: as §1, §4

[15] = test system: Pseudomonas aeruginosa NCTC 10490; experiment: MIC against standard strains (Test Example 1); conditions: NCTC10490, Muller-Hinton agar, 37°C overnight
Method: as §1, §4

[16] = test system: Staphylococcus aureus Smith; experiment: MIC against standard strains (Test Example 1); conditions: Muller-Hinton agar, 37°C overnight
Method: as §1, §4

[17] = test system: Psuedomonas aeruginosa IFO 3445; experiment: MIC against standard strains (Test Example 1); conditions: Muller-Hinton agar, 37°C overnight
Method: as §1, §4

[18] = test system: Enterobacter cloacae ATCC 13407; experiment: MIC against standard strains (Test Example 1); conditions: ATCC13407, Muller-Hinton agar, 37°C overnight
Method: as §1, §4

[19] = test system: Staphylococcus aureus 195; experiment: MIC against standard strains (Test Example 1); conditions: Staphylococcus aureus 195 (MRSA); Muller-Hinton agar, 37°C overnight
Method: as §1, §4

CN(C)CCn1nnnc1SCC1=C(C(=O)O)N2C(=O)[C@@H](NC(=O)Cc3csc(N)n3)[C@H]2SC1 [CTM, cefotiam, reference compound]
MIC (E. coli NIHJ JC-2): 0.1 µg/mL (≈ 0.19 µM) | MIC (S. aureus Smith): 0.39 µg/mL (≈ 0.742 µM) | MIC (E. coli CSH2 (RK1)): 0.1 µg/mL (≈ 0.19 µM) | MIC (A. calcoaceticos T59): 100 µg/mL (≈ 190 µM) | MIC (S. aureus 167): 100 µg/mL (≈ 190 µM) | MIC (M. luteus ATCC 9341): 0.39 µg/mL (≈ 0.742 µM) | MIC (S. aureus 209p JC-1): 0.39 µg/mL (≈ 0.742 µM) | MIC (S. epidemidis IAM1296): 0.2 µg/mL (≈ 0.38 µM) | MIC (P. mirabilis IFO3849): 0.39 µg/mL (≈ 0.742 µM) | MIC (P. aeruginosa NCTC10490): > 100 µg/mL | MIC (K. pneumoniae IFO3317): 0.05 µg/mL (≈ 0.0951 µM) | MIC (P. vulugaris OX-19): 0.39 µg/mL (≈ 0.742 µM) | MIC (C. freundii ATCC8090): 0.78 µg/mL (≈ 1.48 µM) | MIC (E. coli CSH2 (RE45)): 0.1 µg/mL (≈ 0.19 µM) | MIC (K. pneumoniae No. 42): 0.39 µg/mL (≈ 0.742 µM) | MIC (S. marcescens IAM1184): 1.56 µg/mL (≈ 2.97 µM) | MIC (E. cloacae ATCC13407): 3.13 µg/mL (≈ 5.95 µM) | MIC (M. Morganii IFO3848): 0.1 µg/mL (≈ 0.19 µM) | MIC (S. aureus 195): > 100 µg/mL | MIC (B. subtilis ATCC6633): 0.2 µg/mL (≈ 0.38 µM) | MIC (A. faecalis ATCC3750): 1.56 µg/mL (≈ 2.97 µM) | MIC [1]: 0.2 µg/mL (≈ 0.38 µM) | MIC [2]: 0.39 µg/mL (≈ 0.742 µM) | MIC [3]: 3.13 µg/mL (≈ 5.95 µM) | MIC [4]: > 100 µg/mL | MIC [5]: 0.2 µg/mL (≈ 0.38 µM) | MIC [6]: 0.2 µg/mL (≈ 0.38 µM) | MIC [7]: 0.1 µg/mL (≈ 0.19 µM) | MIC [8]: 0.2 µg/mL (≈ 0.38 µM) | MIC [9]: 0.1 µg/mL (≈ 0.19 µM) | MIC [10]: 0.39 µg/mL (≈ 0.742 µM) | MIC (Proteus vulgalis OX-19): 0.39 µg/mL (≈ 0.742 µM) | MIC [11]: 0.1 µg/mL (≈ 0.19 µM) | MIC [12]: 0.78 µg/mL (≈ 1.48 µM) | MIC [13]: 0.39 µg/mL (≈ 0.742 µM) | MIC [14]: 0.2 µg/mL (≈ 0.38 µM) | MIC [15]: > 100 µg/mL | MIC [16]: 0.39 µg/mL (≈ 0.742 µM) | MIC [17]: > 100 µg/mL | MIC [18]: 50 µg/mL (≈ 95.1 µM) | MIC [19]: > 100 µg/mL

— patent publication EP0554004A2, “Cephem compounds and antibacterial agents” (KATAYAMA SEIYAKUSYO CO. Ltd., priority 1992, dated 1993)
